According to the supplement of paper PMC10307832:

Tests used:
Experiment in all cases: relative viability (nuclei count vs DMSO), 5 days (fraction); higher = more cells survive
[1] = compound: CN[C@@H]1C[C@H]2O[C@@](C)([C@@H]1OC)n1c3ccccc3c3c4c(c5c6ccccc6n2c5c31)C(=O)NC4 [Staurosporine] + C[C@]1(O)C[C@@H](c2nc(-c3ccc4ccc(-c5ccccc5)nc4c3)c3c(N)nccn32)C1 [Linsitinib] (partner 1 µM)
How it was run: (§1)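 Medians of duplicate plates are given as relative viability. That measure is the nuclei count in treated wells divided by the count in vehicle wells. Counts were taken on 4× images of lung cancer cell lines in 1536-well plates, 5 days after pin-tool dosing the day after seeding with one drug alone or a fixed anchor-drug dose plus five library-drug doses (not always all listed) in √10 steps.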

[2] = compound: O=c1[nH]cc(F)c(=O)[nH]1 [5-Fluorouracil] + CCNC(=O)c1noc(-c2cc(C(C)C)c(O)cc2O)c1-c1ccc(CN2CCOCC2)cc1 [Luminespib] (partner 0.01 µM)
How it was run: as §1

5-Fluorouracil + OSI-027 = compound: O=c1[nH]cc(F)c(=O)[nH]1 [5-Fluorouracil] + COc1cccc2cc(-c3nc([C@H]4CC[C@H](C(=O)O)CC4)n4ncnc(N)c34)[nH]c12 [OSI-027] (partner 0.5 µM)
How it was run: as §1

[3] = compound: O=c1[nH]cc(F)c(=O)[nH]1 [5-Fluorouracil] + Nc1nc2[nH]cc(CCc3ccc(C(=O)N[C@@H](CCC(=O)O)C(=O)O)cc3)c2c(=O)[nH]1 [Pemetrexed] (partner 0.2 µM)
How it was run: as §1

Cell Line | relative viability ([1]; first compound 0.005 µM) | relative viability ([1]; first compound 0.01581 µM) | relative viability ([1]; first compound 0.05 µM) | relative viability ([1]; first compound 0.1581 µM) | relative viability ([1]; first compound 0.5 µM) | relative viability ([2]; first compound 0.02 µM) | relative viability ([2]; first compound 0.2 µM) | relative viability ([2]; first compound 0.6325 µM) | relative viability ([2]; first compound 2 µM) | relative viability (5-Fluorouracil + OSI-027; first compound 0.02 µM) | relative viability (5-Fluorouracil + OSI-027; first compound 0.2 µM) | relative viability (5-Fluorouracil + OSI-027; first compound 0.6325 µM) | relative viability (5-Fluorouracil + OSI-027; first compound 2 µM) | relative viability ([3]; first compound 0.02 µM) | relative viability ([3]; first compound 0.2 µM) | relative viability ([3]; first compound 0.6325 µM) | relative viability ([3]; first compound 2 µM)
NCI-H2347 | 0.899 | 0.732 | 0.402 | 0.446 | 0.351 | 0.41 | 0.72 | 0.41 | 0.411 | 0.939 | 0.322 | 0.298 | 0.329 | 0.365 | 0.414 | 0.424 | 0.426
NCI-H2405 | 0.214 | 0.127 | 0.113 | 0.0901 | 0.0874 | 0.707 | 0.786 | 0.676 | 0.693 | 0.633 | 0.661 | 0.701 | 0.604 | 1.11 | 1.12 | 1.07 | 0.535
NCI-H3122 | 1.11 | 0.561 | 0.874 | 0.544 | 0.247 | 0.104 | 0.09 | 0.095 | 0.088 | 1.04 | 0.871 | 0.349 |  | 0.197 | 0.181 | 0.167 | 0.164
PC-3 [JPC-3] | 0.986 |  | 0.723 | 0.559 | 0.478 | 0.66 | 0.753 | 0.621 | 0.524 | 0.824 | 0.805 | 0.726 | 0.625 | 0.987 | 1.02 | 1.02 | 0.751
PC-14 | 0.892 | 0.633 | 0.0982 | 0.0802 | 0.0859 | 0.117 | 0.151 | 0.171 | 0.191 | 0.876 | 0.976 | 0.747 | 0.296 | 0.128 | 0.14 | 0.147 | 0.18
RERF-LC-KJ | 0.895 | 0.804 | 0.431 | 0.213 | 0.166 | 1.42 | 1.24 | 1.22 | 0.904 | 0.609 | 0.553 | 0.543 | 0.471 | 0.483 | 0.507 | 0.531 | 0.495
SK-LU-1 | 0.313 | 0.263 | 0.205 | 0.2 | 0.145 | 0.196 | 0.216 | 0.231 | 0.193 | 0.374 | 0.309 | 0.342 | 0.321 | 0.959 | 1.01 | 0.916 | 0.763
SK-MES-1 | 0.836 | 0.403 | 0.318 | 0.267 | 0.153 | 1.07 | 0.606 | 0.349 | 0.255 | 0.577 | 0.367 | 0.253 | 0.196 | 0.837 | 0.473 | 0.351 | 0.303
SW 1573 | 0.586 | 0.449 | 0.144 | 0.131 | 0.107 | 0.253 | 0.228 | 0.323 | 0.169 | 0.548 | 0.73 | 0.633 | 0.327 | 0.853 | 0.815 | 0.704 | 0.408
